# Results as given in patent publication US9975853B2, “Tetrahydroisoquinolinone derivatives and their use in the inhibition of the HSP70 protein” (Julius-Maximilians-Universitaet Wuerzburg, priority 2014, dated 2018).
# System: INA-6
# Assay: Cell viability assay (annexin V-FITC/propidium iodide, flow cytometry) in INA-6 multiple myeloma cells
# Format: cell-based, human
# Experimental: The effect of pharmacological Hsp70 inhibition on cell viability was analyzed after 72 hours of treatment in both non-malignant (mononuclear cells from the peripheral blood) and malignant lymphocytes (multiple myeloma cells). The mononuclear cells were separated from the peripheral blood of healthy donors by Ficoll-Hypaque density gradient centrifugation. The human cell line INA-6 represents a well-established model for multiple myeloma. The percentage of viable and apoptotic cell fractions was assessed using an annexin V-FITC/propidium iodide (PI) staining kit (Bender MedSystems, Vienna, Austria) according to manufacturer's instructions. In brief, cells were washed in PBS, incubated for 10 min in 100 ml binding buffer (10 mM HEPES/NaOH, pH 7.4, 140 mM NaCl, 2.5 mM CaCl2) containing 2.5 ml annexin V-FITC mix and 1 mg/ml propidium iodide (PI), subsequently diluted with 100 ml binding buffer and analyzed by flow cytometry (FACSCalibur/CELLQuest; Becton Dickinson, Heidelberg, Germany). Whereas viable cells are negative for both, annexin V-FITC and PI, early apoptotic cells show a positive annexin V-FITC staining, and cells in a late apoptotic stage which lose their membrane integrity additionally incorporate DNA-binding PI. To establish kill curves, concentrations of the tested compounds were titrated, and the measured viable cell fractions were further analyzed using the Prism Calculation Software (GraphPad Software Inc., La Jolla, USA).
# In FIG. 2A Western blot analyses of caspases 9 and 3, and the caspase substrate PARP (upper panel), and viability analyses (lower panel) of INA-6 MM cells upon treatment with trans-7b for 24 hours are shown. INA-6 cells were either incubated with DMSO (as a solvent control) or with 0.6 μM of trans-7b, and additionally incubated either with DMSO or the pan-caspase inhibitor Z-VAD-FMK prior to analyses by Western or viability assessment (without Z-VAD-FMK co-treatment) by Annexin V/propidum iodide double staining. For Western analyses INA-6 cell pellets were dissolved in lysis buffer (20 mM HEPES (pH 7.9), 350 mM NaCl, 1 mM MgCl2, 0.5 mM EDTA, 0.1 mM EGTA, 1% NP40, 0.5 mM dithiothreiol (DTT), 1 mM Na3VO4, 0.1 mM PMSF and 1 μg/ml aprotinin). Lysates were cleared by centrifugation, measured by quantitative protein assay (Bio-Rad, München, Germany) and subjected to SDS gel electrophoresis. Proteins were transferred onto nitrocellulose membranes (Schleicher & Schuell, Dassel, Germany), incubated with antibodies specific for caspase 9, caspase 3 or PARP (Cell Signaling Technology, Frankfurt a.Main, Germany) according to standard procedures and visualized with secondary anti-rabbit horseradish peroxidase (HRP)-conjugated antibodies using an enhanced chemoluminescence detection system (ECL, Amersham, Freiburg, Germany). […] Annexin V/propidium iodide (PI) staining was performed using a fluorescein isothiocyanate (FITC) conjugated recombinant human annexin/propidium iodide kit (BenderMedSystems, Vienna, Austria) according to the manufacturer's instructions. INA-6 cells were washed in PBS, incubated for 15 minutes in 100 ml binding buffer (10 mM HEPES/NaOH, pH 7.4, 140 mM NaCl, 2.5 mM CaCl2) containing 2.5 mL annexin V-FITC mix and 1 mg/ml PI and analyzed by flow cytometry (FACSCalibur/CELLQuest; Becton Dickinson, Heidelberg, Germany). Whereas early apoptosis is characterized by positive annexin V-FITC staining reaction, cells in a late apoptotic stage lose their membrane integrity and additionally incorporate PI. Thus, the fraction of viable cells remains negative for both annexin V-FITC and PI. […] Based on the above described experiments also viability analyses of INA-6 in comparison with non-malignant PBMCs were performed choosing a longer incubation time (72 hours) as shown in FIG. 2B or C. Raw data of three independent experiments have been calculated to establish means, standard deviation and dose-effect curves of trans-7b.
structure (smiles),measurement,setting,value
"COc1ccc(C2C(C(=O)Nc3cccc(C)n3)c3ccccc3C(=O)N2c2ccccc2)cc1 (stereo not drawn) [trans-7b, trans-3-(4-Methoxyphenyl)-N-(6-methylpyridin-2-yl)-1-oxo-2-phenyl-1,2,3,4-tetrahydroisoquinoline-4-carboxamide]",viability of INA-6 cells in comparison with the DMSO control (100%),"0.6 μM, 24 hours, Annexin V/propidium iodide",drastically decreased
same,"sensitivity of INA-6 tumor cells (viability, dose-effect curves)","72 hours, three independent experiments",highly sensitive (in a low micromolar range)
same,EC50,"Homo sapiens, INA-6, 72 h, INA-6 multiple myeloma cells, 72 hours of treatment, viable cell fraction, mean of at least three determinations, read-out: INA-6 EC50(±sdv)",410 nM
